The target in assay [1] is T1, ABHD2 (Homo sapiens, UniProt P08910).
T1 construct: All ABPP-SILAC experiments were performed using the human COLO205 colon cancer cell line; endogenous in cells; host or cells: COLO205
The experiment in a line: ABPP-SILAC, COLO205 cells treated in situ. It is filed as cell-based. The note with it: COLO 205, 4 h.

Assay [2] has as its system mouse peritoneal macrophages. Put plainly: Lyso-PS content of thioglycollate-elicited peritoneal macrophages. It is filed as cell-based. The note with it: pre-treatment 1 μM, 4 h; LPS 5 μg/mL, 7 h. The protocol:
ABHD16A^+/+, ABHD16A^+/+, and ABHD16A^−/− littermates of 10 weeks age were anaesthetized by isoflurane and killed by decapitation. The tissues (brains were sliced laterally into two hemispheres; entire spinal cord) were harvested, weighed, and immediately submerged in liquid N2. Tissues (one half brain or entire spinal cord) were then Dounce-homogenized in 8 mL of 2:1:1 (vol/vol/vol) CHCl3: MeOH: PBS containing the internal standard mix (1 nmol 17:1 FFA, and 100 pmol each of 17:1 lyso-PS, 17:0-20:4 PS, 17:1 lyso-PC, 17:0-20:4 PC, 17:0-20:4 PE and 50 pmol of 2-AG-d5). Homogenates were transferred to a glass vial and centrifuged at 2800×g for 10 minutes to separate the two phases. The organic phase (bottom) was removed, 200 μL of formic acid was added to acidify the aqueous homogenate (to enhance extraction of phospholipids), and CHCl3 was added to make up 8 mL volume. […]
All the metabolites analyzed in this study were quantified using the multiple reaction monitoring (MRM) methods the targeted LC/MS analysis was done using an Agilent Technologies 6460 Triple Quad LC/M with an Agilent Technologies 1290 Infinity series quaternary pump. All data was collected using the LC/MS Data Acquisition mode of the Mass Hunter Workstation Software version B.05.00 build 5.0.5027.0 SP, and analyzed using the Quantitative Analysis mode of the same software. […]

Assay [3] has as its target T2, PS lipase activity of human lymphoblast cell lines (LCLs) (Homo sapiens, UniProt O95870).
T2 construct: PS lipase activity of membrane proteomes from indicated LCLs; endogenous in cells; host or cells: human lymphoblast cell lines (PHARC subject, relatives, controls), membrane proteome
The experiment in a line: PS lipase activity of LCL membrane proteomes. It is filed as biochemical. The note with it: proteomes pre-treated 1 μM, 30 min, 37° C. The text has this: For part (a), Student's t-test: ** p<0.005 for PHARC LCL versus Control 1 or Control 2 LCLs.

For assay [4], the target named is PS lipase activity of mouse peritoneal macrophages (Mus musculus, UniProt Q9Z1Q2). Put plainly: PS lipase activity of peritoneal macrophage membrane proteomes. The note with it: LPS-stimulated macrophages; 1 μM, 30 min, 37° C.
Sequence of PS lipase activity of mouse peritoneal macrophages (Q9Z1Q2 whole entry): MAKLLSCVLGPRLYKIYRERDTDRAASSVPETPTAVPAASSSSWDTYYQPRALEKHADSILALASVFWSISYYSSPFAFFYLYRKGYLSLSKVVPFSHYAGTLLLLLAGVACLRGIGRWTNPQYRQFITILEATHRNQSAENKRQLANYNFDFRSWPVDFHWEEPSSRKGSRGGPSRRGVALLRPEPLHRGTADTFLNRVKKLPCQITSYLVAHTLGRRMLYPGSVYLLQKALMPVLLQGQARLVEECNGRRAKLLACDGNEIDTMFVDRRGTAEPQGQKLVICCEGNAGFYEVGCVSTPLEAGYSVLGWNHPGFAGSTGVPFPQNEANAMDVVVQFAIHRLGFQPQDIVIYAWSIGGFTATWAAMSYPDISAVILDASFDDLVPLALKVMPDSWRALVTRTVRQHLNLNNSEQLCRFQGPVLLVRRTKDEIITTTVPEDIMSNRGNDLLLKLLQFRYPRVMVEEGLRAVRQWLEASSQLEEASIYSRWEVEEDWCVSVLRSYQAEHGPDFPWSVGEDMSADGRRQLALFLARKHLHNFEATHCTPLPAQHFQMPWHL
Assay [5] has as its system serine hydrolases. Put plainly: Gel-based ABPP in K562, off-targets. It is filed as cell-based, human. How it is done:
The K562 cell line was treated with varying concentrations of KC01 for 4 h and the cell membrane fractions analyzed by gel-based ABPP. More specifically, the membrane proteome of K562 cells (left gel, FIG. 9) or cultured K562 cells (right gel, FIG. 9) were treated with the indicated concentrations of KC01 (in vitro: 1 mg/mL proteome; 30 min treatment, 37° C.; in situ: 2×10^6 cells; 4 h treatment, 37° C.), followed by FP-rhodamine (added in vitro to cell proteomes at 2 μM for 30 min, 37° C.) and analyzed by gel-based ABPP. Estimated in vitro and in situ IC50 values for KC01 from the gel-based ABPP experiments were 0.2-0.5 μM. Gel-based ABPP experiments were performed in triplicate with consistent results.

T1 sequence (P08910 whole entry): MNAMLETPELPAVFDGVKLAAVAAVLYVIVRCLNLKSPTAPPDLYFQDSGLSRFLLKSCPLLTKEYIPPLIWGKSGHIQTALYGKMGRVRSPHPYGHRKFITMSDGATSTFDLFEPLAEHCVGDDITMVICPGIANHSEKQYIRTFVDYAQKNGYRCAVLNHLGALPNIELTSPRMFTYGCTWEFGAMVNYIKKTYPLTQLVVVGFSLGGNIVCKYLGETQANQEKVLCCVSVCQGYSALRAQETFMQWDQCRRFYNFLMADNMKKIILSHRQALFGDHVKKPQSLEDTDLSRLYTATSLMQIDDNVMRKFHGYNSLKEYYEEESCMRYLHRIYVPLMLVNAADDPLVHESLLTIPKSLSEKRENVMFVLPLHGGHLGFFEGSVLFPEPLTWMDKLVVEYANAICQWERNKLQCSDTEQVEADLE
T2 sequence (O95870 whole entry): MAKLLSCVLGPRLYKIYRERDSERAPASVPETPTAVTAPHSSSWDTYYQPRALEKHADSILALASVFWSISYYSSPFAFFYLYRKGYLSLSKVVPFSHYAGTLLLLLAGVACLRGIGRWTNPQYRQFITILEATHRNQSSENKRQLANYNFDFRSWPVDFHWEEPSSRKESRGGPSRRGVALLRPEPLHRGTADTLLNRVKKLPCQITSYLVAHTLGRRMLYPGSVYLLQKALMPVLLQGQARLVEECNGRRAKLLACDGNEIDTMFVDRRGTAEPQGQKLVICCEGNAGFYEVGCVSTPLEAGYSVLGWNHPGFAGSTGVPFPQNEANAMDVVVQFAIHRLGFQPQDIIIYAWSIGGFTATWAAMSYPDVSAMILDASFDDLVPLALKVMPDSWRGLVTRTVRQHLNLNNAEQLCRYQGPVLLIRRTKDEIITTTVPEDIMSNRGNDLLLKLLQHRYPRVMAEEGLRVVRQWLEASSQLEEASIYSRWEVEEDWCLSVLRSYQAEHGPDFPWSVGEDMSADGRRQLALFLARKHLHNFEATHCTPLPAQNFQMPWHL

Turning to `CCCCCCCCCCCCCC1OC(=O)/C1=C\CCCCC(N)=O` (centres unmarked) [KC01, (Z)-6-(2-oxo-4-tridecyloxetan-3-ylidene)hexanamide], testing at 1 µM in assay [1] gave an inhibition of 94%. Moreover, the “basal and LPS-induced cellular and secreted lyso-PSs” value in assay [2] was “reduced”. For the same compound, the PS lipase activity result was “substantially reduced” in assay [3] and “blocked” in assay [4]. Also, the off-targets detected entry in assay [5] is given as “Very few off-targets”.

The values are drawn from US20170313669A1, “LACTONE COMPOUNDS AND METHODS OF MAKING AND USING SAME” (THE SCRIPPS RESEARCH INSTITUTE, priority 2015, published 2017).
